Molecules are shown by their SMILES.

Drawing on patent US20250214969A1, “PROTEIN DEGRADERS AND USES THEREOF” (Kymera Therapeutics, Inc., priority 2022, published 2025), this text covers IC50 for 31 compounds.

In the first experiment the target is T1, truncated His-MBP-Tev-KLHDC2 (residues 1-363) (Homo sapiens, UniProt Q9Y2U9).
T1 construct: truncated His -MBP-Tev-KLHDC2 (residues 1-363) purified from E. coli; made in house; host or cells: E. coli
T1 sequence (Q9Y2U9 1-363): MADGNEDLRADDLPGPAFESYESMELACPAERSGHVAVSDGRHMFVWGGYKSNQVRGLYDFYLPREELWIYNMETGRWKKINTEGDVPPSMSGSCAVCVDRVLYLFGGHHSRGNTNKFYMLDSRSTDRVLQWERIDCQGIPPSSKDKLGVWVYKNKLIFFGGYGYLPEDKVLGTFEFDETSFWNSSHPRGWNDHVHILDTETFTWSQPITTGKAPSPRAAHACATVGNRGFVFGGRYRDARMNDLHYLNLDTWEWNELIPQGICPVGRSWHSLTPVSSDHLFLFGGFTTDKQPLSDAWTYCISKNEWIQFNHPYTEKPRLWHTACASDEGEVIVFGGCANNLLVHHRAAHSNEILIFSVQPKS
The experiment in a line: KLHDC2 HTRF binding assay. To be noted: 1 nM KLHDC2 (residues 1-363), fluorescein-labeled diglycine peptide probe. On the technique in general: In TR-FRET formats the signal depends on donor and acceptor labels being close together.
What is called IC50 is the concentration that gives 50% inhibition. In turn, `Cc1ccc(C(=O)Nc2ccc(=O)n(CC(=O)O)c2)cc1-c1ccccc1` [I-269] showed an IC50 of 0.5 to 5 µM.

`N#Cc1ccc(OCC(=O)Nc2ccc(=O)n(CC(=O)O)c2)cc1` [I-270]: the IC50 is over 5 µM.

In turn, `O=C(O)CN1CC(NC(=O)c2ccccc2)CCC1=O` (centres unmarked) [I-271] yielded an IC50 of over 5 µM.

As to `CN(C(=O)Cc1ccc(=O)n(CC(=O)O)c1)c1ccccc1` [I-272], the IC50 is over 5 µM.

With `COc1ccccc1OCC(=O)Nc1ccc(=O)n(CC(=O)O)c1` [I-273], the IC50 is over 5 µM.

In turn, `O=C(O)Cn1cc(NC(=O)c2cccc(-c3ccccc3)n2)ccc1=O` [I-274] showed an IC50 of over 5 µM.

Turning to `Cc1ccc(-c2cccc(C(=O)Nc3ccc(=O)n(CC(=O)O)c3)c2)cc1` [I-275], the IC50 was in the range of 0.5 to 5 µM.

Regarding `O=C(O)Cn1cc(NC(=O)c2cccc(-c3ccc(F)cc3)c2)ccc1=O` [I-276], the IC50 fell in the range of 0.5 to 5 µM.

In the case of `O=C(O)Cn1cc(CC(=O)N2CCc3ccccc32)ccc1=O` [I-277], the IC50 is over 5 µM.

Turning to `O=C(O)Cn1cc(NC(=O)COc2ccc(Cl)cc2)ccc1=O` [I-278], the IC50 is over 5 µM.

Consider `O=C(O)Cn1cc(NC(=O)COc2ccccc2F)ccc1=O` [I-279], for which the IC50 was over 5 µM.

`O=C(O)Cn1cc(NC(=O)c2cccc(-c3ccncc3)c2)ccc1=O` [I-280] registered an IC50 of over 5 µM.

With `O=C(O)Cn1cc(NC(=O)c2cccc(-c3cccnc3)c2)ccc1=O` [I-281], the IC50 was 0.5 to 5 µM.

Turning to `O=C(O)Cn1cc(NC(=O)COc2ccccc2Cl)ccc1=O` [I-282], the IC50 was over 5 µM.

`O=C(O)Cn1cc(NC(=O)COc2ccc(F)cc2)ccc1=O` [I-283] came in with a half-inhibitory concentration (IC50) of over 5 µM.

For the compound `CN(C)C(=O)Cc1ccc(=O)n(CC(=O)O)c1` [I-284], the IC50 was over 5 µM.

In the case of `O=C(O)Cn1cc(-c2cncc(CCc3ccccc3)c2)ccc1=O` [I-285], the half-inhibitory concentration (IC50) is over 5 µM.

`CN(C(=O)c1ccccc1)c1ccc(=O)n(CC(=O)O)c1` [I-286] had an IC50 of over 5 µM.

In turn, `O=C(O)Cn1cc(-c2cncc(/C=C/c3ccccc3)c2)ccc1=O` [I-287] yielded an IC50 of over 5 µM.

Take `O=C(O)Cn1cc(NC(=O)c2cccc(-c3ccccc3F)c2)ccc1=O` [I-288]: the IC50 was over 5 µM.

Regarding `Cc1ccccc1-c1cccc(C(=O)Nc2ccc(=O)n(CC(=O)O)c2)c1` [I-289], the half-inhibitory concentration (IC50) is over 5 µM.

The compound `O=C(O)Cn1cc(CC(=O)N2CCCCC2)ccc1=O` [I-290] gave an IC50 of over 5 µM.

Turning to `O=C(O)Cn1cc(-c2cccc(CO)c2)ccc1=O` [I-291], the IC50 is over 5 µM.

`COc1cccc(-c2cccc(C(=O)Nc3ccc(=O)n(CC(=O)O)c3)c2)c1` [I-292] yielded an IC50 of over 5 µM.

With `O=C(O)Cn1cc(NC(=O)c2cccc(-c3cccc(Cl)c3)c2)ccc1=O` [I-293], the IC50 lay in the range of 0.5 to 5 µM.

With `Cc1cccc(-c2cccc(C(=O)Nc3ccc(=O)n(CC(=O)O)c3)c2)c1` [I-294], the IC50 is over 5 µM.

Turning to `O=C(O)Cn1cc(-c2cccc(CCc3ccccc3)c2)ccc1=O` [I-295], the IC50 is over 5 µM.

In the case of `O=C(O)Cn1cc(-c2cccc(/C=C/c3ccccc3)c2)ccc1=O` [I-296], the IC50 is over 5 µM.

`Cc1cc(C(=O)Nc2ccc(=O)n(CC(=O)O)c2)sc1-c1ccccc1` [I-297] had an IC50 of 0.5 to 5 µM.

Compound `O=C(O)Cn1cc(NC(=O)c2cccc(-c3cccc(F)c3)c2)ccc1=O` [I-298] showed an IC50 of over 5 µM.

Turning to `O=C(O)Cn1cc(CNC(=O)c2ccccc2)ccc1=O` [I-299], the IC50 is over 5 µM.

A further experiment concerns the target T1, truncated His-MBP-Tev-KLHDC2 (residues 1-363). The experiment in a line: KLHDC2 FP competition binding assay. To be noted: 15 nM KLHDC2 (residues 1-363), 10 nM fluorescein-labeled diglycine peptide probe, read-out: KLHDC2 binding Human FP: average external IC50.
For `Cc1ccc(C(=O)Nc2ccc(=O)n(CC(=O)O)c2)cc1-c1ccccc1` [I-269], the IC50 is over 5 µM.

Take `N#Cc1ccc(OCC(=O)Nc2ccc(=O)n(CC(=O)O)c2)cc1` [I-270]: the IC50 was over 5 µM.

Take `O=C(O)CN1CC(NC(=O)c2ccccc2)CCC1=O` (centres unmarked) [I-271]: the IC50 is over 5 µM.

As for `CN(C(=O)Cc1ccc(=O)n(CC(=O)O)c1)c1ccccc1` [I-272], the IC50 is over 5 µM.

Consider `COc1ccccc1OCC(=O)Nc1ccc(=O)n(CC(=O)O)c1` [I-273], for which the IC50 was over 5 µM.

In the case of `O=C(O)Cn1cc(NC(=O)c2cccc(-c3ccccc3)n2)ccc1=O` [I-274], the IC50 is over 5 µM.

For `Cc1ccc(-c2cccc(C(=O)Nc3ccc(=O)n(CC(=O)O)c3)c2)cc1` [I-275], the IC50 is over 5 µM.

Regarding `O=C(O)Cn1cc(NC(=O)c2cccc(-c3ccc(F)cc3)c2)ccc1=O` [I-276], the IC50 is over 5 µM.

In the case of `O=C(O)Cn1cc(CC(=O)N2CCc3ccccc32)ccc1=O` [I-277], the IC50 was over 5 µM.

Take `O=C(O)Cn1cc(NC(=O)COc2ccc(Cl)cc2)ccc1=O` [I-278]: the half-inhibitory concentration (IC50) is over 5 µM.

On to `O=C(O)Cn1cc(NC(=O)COc2ccccc2F)ccc1=O` [I-279], for which the IC50 was over 5 µM.

Take `O=C(O)Cn1cc(NC(=O)c2cccc(-c3ccncc3)c2)ccc1=O` [I-280]: the IC50 was over 5 µM.

Regarding `O=C(O)Cn1cc(NC(=O)c2cccc(-c3cccnc3)c2)ccc1=O` [I-281], the IC50 fell in the range of 0.5 to 5 µM.

Turning to `O=C(O)Cn1cc(NC(=O)COc2ccccc2Cl)ccc1=O` [I-282], the IC50 is over 5 µM.

In the case of `O=C(O)Cn1cc(NC(=O)COc2ccc(F)cc2)ccc1=O` [I-283], the IC50 was over 5 µM.

Consider `CN(C)C(=O)Cc1ccc(=O)n(CC(=O)O)c1` [I-284], for which the IC50 is over 5 µM.

Consider `O=C(O)Cn1cc(-c2cncc(CCc3ccccc3)c2)ccc1=O` [I-285], for which the IC50 was over 5 µM.

In the case of `CN(C(=O)c1ccccc1)c1ccc(=O)n(CC(=O)O)c1` [I-286], the IC50 is over 5 µM.

Regarding `O=C(O)Cn1cc(-c2cncc(/C=C/c3ccccc3)c2)ccc1=O` [I-287], the IC50 is over 5 µM.

Regarding `O=C(O)Cn1cc(NC(=O)c2cccc(-c3ccccc3F)c2)ccc1=O` [I-288], the IC50 is over 5 µM.

Regarding `Cc1ccccc1-c1cccc(C(=O)Nc2ccc(=O)n(CC(=O)O)c2)c1` [I-289], the IC50 is over 5 µM.

For `O=C(O)Cn1cc(CC(=O)N2CCCCC2)ccc1=O` [I-290], the IC50 is over 5 µM.

As to `O=C(O)Cn1cc(-c2cccc(CO)c2)ccc1=O` [I-291], the IC50 is over 5 µM.

Take `COc1cccc(-c2cccc(C(=O)Nc3ccc(=O)n(CC(=O)O)c3)c2)c1` [I-292]: the IC50 is over 5 µM.

Turning to `O=C(O)Cn1cc(NC(=O)c2cccc(-c3cccc(Cl)c3)c2)ccc1=O` [I-293], the IC50 is over 5 µM.

`Cc1cccc(-c2cccc(C(=O)Nc3ccc(=O)n(CC(=O)O)c3)c2)c1` [I-294]: the IC50 is over 5 µM.

On to `O=C(O)Cn1cc(-c2cccc(CCc3ccccc3)c2)ccc1=O` [I-295], for which the IC50 is over 5 µM.

As to `O=C(O)Cn1cc(-c2cccc(/C=C/c3ccccc3)c2)ccc1=O` [I-296], the IC50 is over 5 µM.

As to `Cc1cc(C(=O)Nc2ccc(=O)n(CC(=O)O)c2)sc1-c1ccccc1` [I-297], the 50% inhibitory concentration (IC50) was over 5 µM.

As to `O=C(O)Cn1cc(NC(=O)c2cccc(-c3cccc(F)c3)c2)ccc1=O` [I-298], the IC50 was over 5 µM.

Consider `O=C(O)Cn1cc(CNC(=O)c2ccccc2)ccc1=O` [I-299], for which the IC50 was over 5 µM.
